Settings in all cases: at 1 µM
The target of experiment [1] is T1, Inhibitor of nuclear factor kappa-B kinase subunit alpha (Homo sapiens) (UniProt O15111).
T1 sequence (whole entry): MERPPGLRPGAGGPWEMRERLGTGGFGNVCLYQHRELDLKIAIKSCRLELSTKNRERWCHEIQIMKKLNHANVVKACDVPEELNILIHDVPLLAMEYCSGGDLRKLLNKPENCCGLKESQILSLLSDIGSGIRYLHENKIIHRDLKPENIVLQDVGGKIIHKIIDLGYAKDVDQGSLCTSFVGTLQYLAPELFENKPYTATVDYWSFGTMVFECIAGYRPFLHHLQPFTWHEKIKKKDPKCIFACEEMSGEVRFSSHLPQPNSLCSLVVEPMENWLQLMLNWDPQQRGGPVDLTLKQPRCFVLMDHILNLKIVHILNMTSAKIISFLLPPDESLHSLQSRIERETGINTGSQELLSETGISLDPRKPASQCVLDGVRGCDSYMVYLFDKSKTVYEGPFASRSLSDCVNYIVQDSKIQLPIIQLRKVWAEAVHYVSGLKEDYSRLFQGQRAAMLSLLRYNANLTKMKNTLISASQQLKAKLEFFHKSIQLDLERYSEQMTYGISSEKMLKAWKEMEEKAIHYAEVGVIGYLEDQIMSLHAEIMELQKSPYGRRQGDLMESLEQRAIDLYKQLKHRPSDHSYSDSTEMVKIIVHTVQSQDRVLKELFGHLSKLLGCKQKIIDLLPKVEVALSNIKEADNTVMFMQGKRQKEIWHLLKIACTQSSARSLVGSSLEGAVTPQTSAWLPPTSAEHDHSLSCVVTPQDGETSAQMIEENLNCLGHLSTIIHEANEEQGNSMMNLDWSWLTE

Experiment [2] deals with T2, Inhibitor of nuclear factor kappa-B kinase subunit epsilon (Homo sapiens) (UniProt Q14164).
T2 sequence (whole entry): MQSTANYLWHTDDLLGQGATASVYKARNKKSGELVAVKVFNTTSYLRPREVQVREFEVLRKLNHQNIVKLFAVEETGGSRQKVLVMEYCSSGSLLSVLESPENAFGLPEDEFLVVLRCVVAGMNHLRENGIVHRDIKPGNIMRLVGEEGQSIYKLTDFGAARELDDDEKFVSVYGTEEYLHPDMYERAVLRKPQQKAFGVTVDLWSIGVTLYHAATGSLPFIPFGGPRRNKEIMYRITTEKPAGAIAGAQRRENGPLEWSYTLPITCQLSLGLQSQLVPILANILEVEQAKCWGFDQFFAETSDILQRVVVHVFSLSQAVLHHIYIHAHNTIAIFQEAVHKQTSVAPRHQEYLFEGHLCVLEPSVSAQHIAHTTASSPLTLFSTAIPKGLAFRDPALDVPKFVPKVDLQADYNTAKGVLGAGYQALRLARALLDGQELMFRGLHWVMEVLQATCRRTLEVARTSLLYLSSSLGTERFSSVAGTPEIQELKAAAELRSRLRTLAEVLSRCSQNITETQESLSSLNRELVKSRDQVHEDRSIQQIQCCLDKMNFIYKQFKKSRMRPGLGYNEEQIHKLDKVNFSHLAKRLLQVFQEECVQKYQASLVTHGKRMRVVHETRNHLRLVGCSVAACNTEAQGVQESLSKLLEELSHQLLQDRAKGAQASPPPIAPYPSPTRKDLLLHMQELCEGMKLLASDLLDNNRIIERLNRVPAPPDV

Experiment [3] deals with T3, Inhibitor of nuclear factor kappa-B kinase subunit beta (Homo sapiens) (UniProt O14920).
T3 sequence (whole entry): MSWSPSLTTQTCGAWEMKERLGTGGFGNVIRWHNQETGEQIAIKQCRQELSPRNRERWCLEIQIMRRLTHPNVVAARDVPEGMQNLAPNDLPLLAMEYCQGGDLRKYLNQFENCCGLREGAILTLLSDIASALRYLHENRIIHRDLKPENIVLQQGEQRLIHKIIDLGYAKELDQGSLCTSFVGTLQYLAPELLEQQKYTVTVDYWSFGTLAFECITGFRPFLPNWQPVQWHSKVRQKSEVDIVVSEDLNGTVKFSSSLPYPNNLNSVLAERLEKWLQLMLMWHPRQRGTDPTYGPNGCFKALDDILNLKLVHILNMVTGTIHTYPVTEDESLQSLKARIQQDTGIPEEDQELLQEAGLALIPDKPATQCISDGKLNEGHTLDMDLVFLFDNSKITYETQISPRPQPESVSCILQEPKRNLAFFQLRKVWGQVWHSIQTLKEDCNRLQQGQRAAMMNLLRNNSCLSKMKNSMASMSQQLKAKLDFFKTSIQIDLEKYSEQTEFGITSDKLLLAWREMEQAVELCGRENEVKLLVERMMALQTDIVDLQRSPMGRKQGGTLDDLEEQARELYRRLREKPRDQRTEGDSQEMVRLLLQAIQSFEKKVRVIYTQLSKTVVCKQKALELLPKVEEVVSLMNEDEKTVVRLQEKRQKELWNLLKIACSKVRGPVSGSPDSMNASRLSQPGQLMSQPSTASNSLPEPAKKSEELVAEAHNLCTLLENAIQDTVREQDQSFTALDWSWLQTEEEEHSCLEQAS

“And” between values parts separate entries of the source, which are not always exact repeats. Equal values may be shown once.

In general, inhibition refers to the drop in the measured response relative to a control, in per cent.

`CN(c1ccc(NC(=O)Nc2c(Cl)cccc2Cl)cc1)c1ccnc(Nc2cccc(CS(C)(=O)=O)c2)n1`: the inhibition in experiment [1] was 0% and 6%; in experiment [2], 13%; in experiment [3], -3% and -5%.
As for `CN(C)CCNC(=O)Nc1ccc(N(C)c2ccnc(Nc3ccc(CS(C)(=O)=O)cc3)n2)cc1`, the inhibition in experiment [1] is 1%; in experiment [2], 1%; in experiment [3], -1% and -5%.
As for `FC(F)(F)CNc1nccc(-c2cnn3ncccc23)n1`, the inhibition in experiment [1] is 2% and 7%; in experiment [2], -2% and -1%; in experiment [3], -5% and 2%.
For `CCN1CCC(CC(=O)Nc2n[nH]c3nnc(-c4cccc(F)c4F)cc23)CC1`, the inhibition in experiment [1] is 1% and 6%; in experiment [2] it was -1% and -3%; in experiment [3], -2% and -1%.
Take `Cc1cc(Cl)cc2c1NC(=O)C2=NNc1ccc(S(N)(=O)=O)cc1`: the inhibition in experiment [1] is 11%; in experiment [2] it was 4%; in experiment [3], -6% and -1%.
As to `Cc1ccc(C(=O)NC2CCCCC2)cc1-c1ccc(C(=O)NCC2CC2)cc1`, the inhibition is 9% and 7% in experiment [1]; 0% and -1% in experiment [2]; 5% and 0% in experiment [3].
As to `O=C1Nc2ccc(-c3cccnc3)cc2C1=Cc1cc(Br)c(O)c(Br)c1`, the inhibition is 16% and 2% in experiment [1]; 37% and 39% in experiment [2]; -5% and -4% in experiment [3].
Consider `COc1cc2ncn(-c3cc(OCc4ccccc4C(F)(F)F)c(C(C)=O)s3)c2cc1OC`, for which the inhibition in experiment [1] was 5% and 4%; in experiment [2] it was -4%; in experiment [3], -7% and -4%.
For `O=C1Nc2ccccc2/C1=C/Nc1ccc2[nH]c(=O)[nH]c2c1`, the inhibition is 1% in experiment [1]; 22% and 20% in experiment [2]; -5% and -3% in experiment [3].
Take `COC(=O)Nc1nc2cc(Oc3ccc(NC(=O)Nc4ccccc4)cc3)ccc2[nH]1`: the inhibition in experiment [1] was -1% and -2%; in experiment [2], 2% and 1%; in experiment [3], 1% and -1%.
In the case of `Nc1ncnc2occ(-c3ccc(NC(=O)Nc4cc(C(F)(F)F)cc(C(F)(F)F)c4)cc3)c12`, the inhibition in experiment [1] is 4% and 1%; in experiment [2], 7% and 8%; in experiment [3] it was -4%.
Consider `Cc1c2ccc(N(C)c3ccnc(Nc4cccc(S(N)(=O)=O)c4)n3)cc2nn1C`, for which the inhibition in experiment [1] is 2%; in experiment [2], -1% and 2%; in experiment [3], 0% and -1%.
For `O=C(Nc1n[nH]c2cc(-c3ccc(F)cc3)ccc12)C1CC1`, the inhibition was 2% and 12% in experiment [1]; 2% and -1% in experiment [2]; -8% and -2% in experiment [3].
As for `COc1cc2ncn(-c3cc(OCc4ccccc4S(C)(=O)=O)c(C#N)s3)c2cc1OC`, the inhibition is 1% and 2% in experiment [1]; 90% and 88% in experiment [2]; -5% and -2% in experiment [3].
As for `c1ccc(Oc2ccc(Nc3ncc(-c4ccccc4)o3)cc2)cc1`, the inhibition in experiment [1] was 1% and 2%; in experiment [2], -2% and -1%; in experiment [3] it was -5% and -2%.
On to `CNC(=O)c1cncc(/C=C/c2ccccc2Cl)c1`, for which the inhibition is 3% and 1% in experiment [1]; 0% in experiment [2]; -5% in experiment [3].
Regarding `O=C(Nc1n[nH]c2cc(-c3ccccc3)ccc12)C1CC1`, the inhibition in experiment [1] was 9% and -2%; in experiment [2] it was -1%; in experiment [3], -2% and -6%.
On to `CN(c1ccc(NC(=O)Nc2ccc(OC(F)(F)F)cc2)cc1)c1ccnc(Nc2cccc(S(N)(=O)=O)c2)n1`, for which the inhibition in experiment [1] is 2% and 3%; in experiment [2] it was 17% and 18%; in experiment [3] it was -5% and -4%.
As to `NCc1ccc(-c2nc(-c3ccc(Cl)c(O)c3)c(-c3ccncc3)[nH]2)cc1`, the inhibition in experiment [1] was -3% and -4%; in experiment [2] it was -1% and 0%; in experiment [3] it was 2%.
For the compound `CC(=O)Nc1cccc(C#Cc2cncnc2Nc2ccc(OCc3cccc(F)c3)c(Cl)c2)n1`, the inhibition is 2% in experiment [1]; -1% in experiment [2]; -4% and -2% in experiment [3].
For the compound `Fc1ccc(-c2ncn(CCCN3CCOCC3)c2-c2ccncc2)cc1`, the inhibition is 0% and 1% in experiment [1]; 0% in experiment [2]; 0% and -5% in experiment [3].
Take `Cc1cccc(Nc2ncc(-c3ccccc3)o2)c1`: the inhibition in experiment [1] was -1% and -2%; in experiment [2] it was 0% and 1%; in experiment [3], 2% and 1%.
In the case of `COc1ccc(Nc2ncc(-c3ccccc3)o2)cc1OC`, the inhibition was 1% in experiment [1]; 5% and 4% in experiment [2]; -2% and -6% in experiment [3].
`COc1ccc2cc(-c3c(-c4ccncc4)nc(-c4ccc([S+](C)[O-])cc4)n3C)ccc2c1` (configuration not stated): the inhibition in experiment [1] was 4% and 3%; in experiment [2] it was -1% and 2%; in experiment [3] it was 2% and 3%.
Consider `COc1cc2c(cc1Nc1nc(Nc3ccsc3C(N)=O)c3cc[nH]c3n1)N(C(=O)CN(C)C)CCC2`, for which the inhibition was 3% and 4% in experiment [1]; 7% and 6% in experiment [2]; -6% and -4% in experiment [3].
In the case of `CCC(=O)Nc1ccc(C)c(-c2ccc(C(=O)NCC3CC3)cc2)c1`, the inhibition in experiment [1] was -2%; in experiment [2], -2% and 0%; in experiment [3], -4%.
For `CCc1cccc(NC(=O)Nc2ccc(Oc3ccc4nc(NC(=O)OC)[nH]c4c3)cc2)c1`, the inhibition was -10% in experiment [1]; -3% and -1% in experiment [2]; 0% and 6% in experiment [3].
`Cc1ccc(O)cc1Nc1ccnc2cc(-c3ccccn3)ccc12`: the inhibition in experiment [1] was 6% and 4%; in experiment [2], 1%; in experiment [3], 0% and -5%.
For the compound `CCCN1CCC=C(c2ccc(Nc3nc(Nc4ccccc4C(N)=O)c4cc[nH]c4n3)c(C)c2)C1`, the inhibition in experiment [1] was 4% and 2%; in experiment [2] it was 13% and 12%; in experiment [3], -3% and -1%.
For `CCn1c(-c2nonc2N)nc2ccccc21`, the inhibition in experiment [1] is 24%; in experiment [2] it was -1% and -2%; in experiment [3] it was -5% and -4%.
For `CN1CCC(n2cnc(-c3ccc(F)cc3)c2-c2ccnc(N)n2)CC1`, the inhibition in experiment [1] is 2%; in experiment [2] it was 4%; in experiment [3], -3%.
As for `COc1cc2ncnc(Nc3ccc4c(cnn4Cc4ccccc4)c3)c2cc1OC`, the inhibition in experiment [1] is 2% and -2%; in experiment [2], 2%; in experiment [3], 5% and -4%.
As to `CN1CCN(Cc2ccc(-c3cc4ncnc(Nc5ccc(OCc6cccc(F)c6)c(Cl)c5)c4s3)o2)CC1`, the inhibition was 0% and -4% in experiment [1]; 6% and 5% in experiment [2]; -3% in experiment [3].
As for `Fc1ccc(-c2ncn(C3CCNCC3)c2-c2ccnc(Oc3ccccc3)n2)cc1`, the inhibition is 3% and 2% in experiment [1]; -1% and -2% in experiment [2]; -2% in experiment [3].

The values above are taken from ChEMBL document CHEMBL2007661, “Compounds: GSK PKIS; Assays: UNC Frye lab” (2012).
